Laboratory results taken from US20220288197A1, “METHODS OF TREATING A SUBJECT WITH A CDC42-SPECIFIC INHIBITOR” (Children’s Hospital Medicai Center, priority 2019, published 2022).
Entries after “also recorded” stand apart in the source; their conditions may differ. Like-named read-outs stand apart in the source and are kept apart here.

Tests used:
[1] = system: 75-week old female C57BL/6 mice; experiment: Lifespan (longevity) study of aged mice, 4-day i.p. treatment; type: in vivo
From the text: (§1) Mice. Mice included in the study were female C57BL/6 and were obtained from the internal divisional stock (derived from C57BL/6j mice obtained from both The Jackson Laboratory and NIA/Charles River as well as from C57BL/6JRj mice from Janvier). For the longevity study described herein, 40 mice were randomly selected at 70 weeks of age. Mice were weighed and bled before the beginning of the treatment (day 0) and at day 7 and 35. […] Mice that needed to be euthanized because they were scored as “weak and about to die” according to our approved animal license protocol for evaluating mouse health status remained part of the dataset. Allocation to control or treated group was done randomly (20 mice each experimental group).
Median lifespan, 95% confidence intervals and survival analysis were calculated by Prism GraphPad v7.0c. Of note, the median lifespan of the control group matched data obtained for C57BL/6j mice in a large set of lifespan studies of diverse inbred mouse strains. […]
To determine that a short-term systemic treatment of aged animals with a Cdc42-specific inhibitor would regulate lifespan, CASIN was administered i.p. every 24 hours for 4 consecutive days to 75-week old female C57BL/6 mice (FIG. 1a). CASIN levels in serum were monitored via liquid chromatography-mass spectrometry (FIGS. 2a and 2b). […]

[2] = LC-MS/MS measurement of CASIN pharmacokinetics in mouse serum; type: in vivo, C57BL/6 mice; details: for concentration at 3 h: female, C57BL/6, mouse, serum, intraperitoneal, 25 mg/kg
Procedure: CASIN solution and IP treatment. CASIN was prepared fresh before injection by dissolving the drug directly in beta-cyclodextrin solution (Sigma #H5784). IP injections were performed in the morning, every 24 hours, for 4 consecutive days during week 75 of age of the mice. Control mice were injected with equal volume of the solvent. Serum for the cytokine array was prepared from the day 7 bleeding point. […] The same stock of CASIN was used for the entire study. CASIN was provided as lyophilized powder.
Liquid Chromatography-Mass Spectrometry (LC-MS/MS) measurements of CASIN pharmacokinetics in mouse serum. A LC/MS/MS ion chromatography protocol was employed to measure serum CASIN concentration ranging 0.1-10 μM by comparing serum CASIN from i.p. injected mice at varying times with a standard curve derived by in vitro spiking of mouse serum with defined doses of CASIN. An Autosampler maximum recovery vials with caps (Waters), an UPLC-MS system (Waters Quattro Premier XE mass spectrometry with ACQUITY UPLC system), an Acquity BEH C18 UPLC column (2.1×75 mm, 1.7 μm) (Waters), and an Acquity BEH C18 UPLC guard column (Waters) were used. For LC gradient, solvent A contained acetonitrile/water (5/95) with 2 mM ammonium acetate and solvent B contained acetonitrile/water (90/10). The gradient mobile phase switched from 60% solvent A to 57% solvent A over 2 min, to 50% solvent A at 2.1 min, to 46% solvent A over 9.9 min, and then, after changing to 30% at 12.1 min, to 1% solvent A over 5.9 min, then to 60% solvent A at 18.1 min and this was held for 2 min. Column temperature was kept at 25° C. The capillary voltage was 3 KV for electrospray negative (ES-) mode, cone voltage is 45 V, collision 30 V, desolvation temperature, 350° C.; desolvation gas flow is 600 L/h; source temperature was 120° C.; and MRM transition m/z is 305.1->244.
To determine that a short-term systemic treatment of aged animals with a Cdc42-specific inhibitor would regulate lifespan, CASIN was administered i.p. every 24 hours for 4 consecutive days to 75-week old female C57BL/6 mice (FIG. 1a). CASIN levels in serum were monitored via liquid chromatography-mass spectrometry (FIGS. 2a and 2b). A 50 mg/kg single dose resulted initially in a concentration of about 10 μM in serum (data not shown).

[3] = target: T1, Cdc42 (Mus musculus, UniProt P60766); experiment: Cdc42-GTPase effector domain pull-down assay in bone marrow cells after systemic in vivo treatment; set-up: species or system C57BL/6 mice; details: FIG. 1c
T1 construct: lineage depleted BM cells (10^6) were lysed in a Mg^2+ lysis/wash buffer; from tissue; host or cells: lineage-depleted bone marrow cells of C57BL/6 mice treated in vivo with CASIN
T1 sequence (P60766 whole entry, the tested form may be a part): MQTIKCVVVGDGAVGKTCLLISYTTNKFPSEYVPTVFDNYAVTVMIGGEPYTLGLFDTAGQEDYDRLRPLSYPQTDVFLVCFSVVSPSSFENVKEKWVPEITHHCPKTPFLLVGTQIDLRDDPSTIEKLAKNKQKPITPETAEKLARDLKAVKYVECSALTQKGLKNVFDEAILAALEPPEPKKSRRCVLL
Procedure: Cdc42-GTPase effector domain pull-down assays. Relative levels of GTP-bound Cdc42 were determined by an effector pull-down assay. Briefly, lineage depleted BM cells (10^6) were lysed in a Mg^2+ lysis/wash buffer (Upstate cell signaling solutions) containing 10% glycerol, 25 mM sodium fluoride, 1 mM sodium orthovanadate and a protease inhibitor cocktail (Roche Diagnostics). Samples were incubated with PAK-1 binding domain/agarose beads and bound (activated) as well as unbound (non-activated) Cdc42 fractions were probed by immunoblotting with an anti-Cdc42 antibody (Millipore, rabbit polyclonal). Activated protein was normalized to total protein and/or 3-actin (Sigma) and the relative amount was quantified by densitometry.
(§2) Accordingly, chronic toxicity issues from the administration of inhibitor was unlikely. […] Furthermore, CASIN treatment reversed Cdc42 activity in the aged mice cohort to an approximate level of activity seen in the young mice control cohort. Thus, CASIN treatment generally reverted Cdc42 activity levels in aged mice to the level existing in mice approximately 60 weeks younger in age.

[4] = Toxicity, weight and peripheral blood counts in the lifespan study; type: in vivo
From the text: as §1
Flow cytometry of Peripheral Blood (PB). PB cell immunostaining was performed according to standard procedures and samples were analyzed on a LSRII flow cytometer (BD Biosciences). For PB lineage analysis, the antibodies used were from eBioscience: anti-CD3ε (clone 145-2C11), anti-B220 (clone RA3-6B2), anti-Mac-1 (clone M1/70) and anti-Gr-1 (clone […]). Lineage FACS analysis data were plotted as the percentage of B220+, CD3+ and Myeloid (Gr-1+, Mac-1+ and Gr-1+Mac-1+) cells among total white blood cells. WBC (white blood cell), RBC (red blood cell), Ly (lymphocytes), NE (neutrophils), and Mo (monocyte) counts were generated by using the hemocytometer Hemavet 950, DREW SCIENTIFIC Inc, (FL 33014), USA.
as §2
(§3) Cytokine array analyses were performed to investigate the extent to which aging-associated inflammatory cytokines in serum of aged mice were affected by CASIN treatment.

[5] = system: aging-associated inflammatory cytokines in serum; experiment: Cytokine array (Luminex) of serum of aged mice; type: in vivo, C57BL/6 mice
Procedure: CASIN solution and IP treatment. CASIN was prepared fresh before injection by dissolving the drug directly in beta-cyclodextrin solution (Sigma #H5784). IP injections were performed in the morning, every 24 hours, for 4 consecutive days during week 75 of age of the mice. Control mice were injected with equal volume of the solvent. Serum for the cytokine array was prepared from the day 7 bleeding point. Serum for mass spectrometry analysis of CASIN levels was prepared by bleeding an equal (for sex, strain, origin and age) cohort of mice 3 hours, 24 hours, and 48 hours after the end of the treatment. The same stock of CASIN was used for the entire study. CASIN was provided as lyophilized powder.
Cytokine array. Lumimex Method. Cytokine concentrations in the sample supernatants were determined by using Milliplex™ Multiplex kits (MilliporeSigma, Darmstadt, Germany) according to manufacturer's protocol. Briefly, in a 96 well black plate, 25 μL sample in duplicate was incubated with 25 μL antibody coated beads overnight at 4° C. on a plate shaker. Plates were then washed 2 times using BioTek 405 TS (BioTek, Winooski, Vt.) and 25 μL of secondary antibody was added and incubated at room temperature for 1 hour while shaking. Finally, 25 μL of streptavidin-RPE was added directly to the secondary antibody and incubated for 30 minutes at room temperature with shaking. Plates were then washed 2 more times and 150 μL of sheath fluid was added. Plates were shaken for 5 minutes and then read using luminex technology on the Milliplex Analyzer (MilliporeSigma, Darmstadt, Germany). Concentrations were calculated from standard curves using recombinant proteins and expressed in pg/ml.
as §3

[6] = system: inactivated influenza virus (H3N2); experiment: Viral vaccination response, inactivated influenza virus, antibody titer by ELISA; type: in vivo, C57BL/6 mice; details: aged mice, 21 days after the second vaccination, immunized 12 weeks post CASIN treatment, FIG. 5(D)
Procedure: (§4) Briefly, 75 week-old C57BL/6 mice (referred to in the results as “Old”) and 12-16 week old mice (referred to in the results as “young”) were injected intraperitoneal (“IP”) every 24 hours for four days with a Cdc42-specific inhibitor (e.g., CASIN) at a dosage of interest (e.g., 25 mg/kg) or with solvent as a control group (referred to in the results as “Solvent”). On the fifth day, mice were treated with 5-fluorouracil (“5-FU”). Two methods of vaccination were investigated.
For viral vaccination, animals were immunized twice at an interval of 4 weeks with inactivated influenza virus (10 μg H3N2+10 μL Al(OH)3) i.m. 12 weeks post CASIN treatment. The antibody titer was determined in serum 21 days after the second vaccination using ELISA technology. n=at least 3 per experiment.

[7] = system: hepatitis B virus (HBV) core antigen; experiment: DNA vaccination response with pCI/C DNA encoding HBV core antigen; type: in vivo, C57BL/6 mice; details: aged mice, 13 days after immunization, OLD Solvent vs. OLD CASIN, p<0.05, FIG. 5(B)
Procedure: as §4
For DNA vaccination: 12 weeks after transplantation, recipient mice were immunized with pCI/C DNA encoding the hepatitis B virus (“HBV”) core antigen. FIG. 5(B) provides the results for DNA vaccination with the HBV core antigen 13 days after immunization along with an ovalbumin (“Ova”) specific immune response. The frequency of interferon gamma positive CD3^+CD8^+ T-cells was analyzed, which is an established surrogate measurement for the success of DNA vaccination protocols. […] In FIG. 5(C), splenic K^b/C93-100-dimer^+ CD8^+ T-cell frequencies were determined by flow cytometry 13 days post-immunization with the HBV core antigen. These T-cell frequencies are a direct measurement of antigen-specific T-cells.

## OCCNC1CCCc2c1[nH]c1ccc(-c3ccccc3)cc21 (stereo not shown) [CASIN]
[1]; aged mice treated at week 75, 25 mg/kg i.p. 4 consecutive days, n=17, control 123.5 weeks
  Median survival: 136 weeks
[1]; aged mice treated for 4 consecutive days, FIG. 1d
  average and maximum lifespan: extension of both their average and maximum lifespan
[2]; 25 mg/kg i.p. for 4 consecutive days, 48 hours
  CASIN remaining in serum at the end of the 48 hour window: approximately no CASIN remaining in serum
[2]; 50 mg/kg single dose, initially (data not shown)
  CASIN concentration in serum: about 10 μM
[2]; 25 mg/kg i.p. for 4 consecutive days, 48 hour window of analysis, 3 hours, read-out: concentration of CASIN in serum after 3 hours
  concentration at 3 h: ~2 µM
[2]; 25 mg/kg i.p., old mice, 3 hours after injection, FIG. 2b, read-out: levels of CASIN in serum 3 hours after injection
  concentration at 3 h: ~5 µM
[3]; 24 hours after the last injection, aged mice
  Cdc42-GTP in aged bone marrow cells: reduction of Cdc42-GTP in aged bone marrow cells to the level seen in young
[3]; with no regard to the age of mouse
  decrease of Cdc42 activity: approximately half
[4]; day 7 and day 35, FIG. 2e
  red blood cell count (RBC): did not change
[4]; day 7 and day 35, FIG. 2d
  white blood cell count (WBC): did not change
[4]; day 7 and day 35, FIGS. 2f-k
  frequency and count of myeloid and lymphoid cells in peripheral blood (PB): did not change
[4]; day 7 and day 35 after beginning of treatment, FIG. 2c
  weight: did not change
[4]; four days of consecutive i.p. injections, 25 mg/kg, aged mice
  acute toxicity: did not induce acute toxicity
[4]; within 4 weeks after injections
  deaths of treated mice after CASIN injections: none of the treated mice died
[5]; day 7, FIG. 3
  GM-CSF concentration in serum: trend to be reduced
  IL-2 concentration in serum: trend to be reduced
[5]; day 7, FIG. 1h
  IL-9 serum concentration: increased in serum concentration
[6]
  antibody titer in serum: increase in antibody titer; also recorded: approximately equal to that seen in young mice
[7]
  frequency of interferon gamma positive CD3+CD8+ T-cells: statistically significant increase in immune response
